Data published in patent publication US20260364186A1, “Chemical Conjugates, Compositions, and Methods of Preparation and Use Thereof” (Transfection Holdings Limited, priority 2022, published 2026).
Entries after “also recorded” stand apart in the source; their conditions may differ.

Columns and labels:
[1] = system: NZM11 (BRAF V600E) melanoma cells; assay: FACS uptake of BODIPY FL conjugates, 200 nM, 5 min (Example 2); format: cell-based, human
Experimental: (§1) FIG. 2. Conjugate compounds coupled to BODIPY FL were tested for uptake using 200 nM each conjugate and 5 minute incubation with melanoma cell line NZM11 (BRAF V600E mutant metastatic melanoma), melanoma cell line NZM40 (NRAS Q16H mutant metastatic melanoma) and melanoma cell line NZM9 (BRAF and NRAS wildtype metastatic melanoma). Mean fluorescent intensities (MFI). 2,000 cells (NZM11), 1,000 cells (NZM40) and 500-1,000 cells (NZM9). Cells were sorted by FACS. Bars represent mean±SD. Results were from a single experiment done in triplicate.
Materials and methods: NZM11 is an adherent metastatic melanoma cell which was originally derived from a patient with a subcutaneous lesion on their mid back. This human metastatic melanoma is identified with code CBA-1398 from Cell Bank Australia. […] BRAF is a gene that makes a protein called B-Raf. The gene is involved in sending signals within cells that direct the cell's growth. Around 50% of melanomas bear activating BRAF mutations. In this family of mutations, V600E is the most common, which is a single mutation on codon 600. BRAF mutation is also most common in patients whose tumours arise on skin without chronic sun-induced damage. See Ascierto et al., 2012.
For screening, NZM11, NZM40 and NZM9 cells were suspended at […] dispensed into 96 well plates and left to settle for 48 hours. Then, 10 μL of 10 mM stock solutions in DMSO for the conjugates were diluted with HBSS to afford 400 nM solution. Next, 400 nM compounds and DMSO solutions were diluted 1:1 with MEMα media to afford 200 nM solutions. After 48 hours the media was removed from the 96 well plates and 200 μL of 200 nM conjugates solutions dispensed to each well (in triplicate) and incubated for 5 minutes at 37 °C. After 5 minutes, the media was removed and cells washed with PBS. […] The FACS results output were represented as the mean of the fluorescence intensities (in arbitrary units) measured for cells sorted in every sample.

[2] = system: HT29 (colorectal cancer cell line); assay: FACS uptake of BODIPY FL conjugates (Example 4); format: cell-based, human; conditions: 200 nM, 5 min
Experimental: FIG. 4A: Conjugate compounds coupled to BODIPY FL were tested for uptake using 200 nM each conjugate and 5 minute incubation with colorectal cancer cell line HT29. Mean fluorescent intensities (MFI). 1,000 cells were sorted by FACS.
Materials and methods: The HT-29 line was originally isolated from a primary tumour in 1964 from a person. This cell line is positive for expression of N-ras and overexpression of p53 antigen. The human colon adenocarcinoma cell line HT29, is not only used to study the biology of human colon cancers, but it is receiving special interest in studies focused on food digestion and bioavailability due to the ability to express characteristics of mature intestinal cells. The application of this cell line to transport studies of drugs and food compounds is illustrated, especially when the effect of the mucus layer is considered or used as co-culture in combination with Caco-2 cells. These cells have shown a high rate of glucose consumption and therefore, they require high glucose concentration in the medium. Verhoeck et al., 2015.
For these experiments, HT-29 or MEF cells were diluted on αMEM media (supplemented with 10% FBS+1% penicillin-streptomycin) to give a 250 cells/μL suspension of which 200 μL were aliquoted into each well of a 96 well plate followed by incubation for 24 hours. Next, 2 μL of 100 μM stock solutions in DMSO from the conjugates coupled to BODIPY were diluted with 998 μL of αMEM media to give a 200 nM solution. After 24 hour incubation, media was removed and 200 μL of 138 and pantothenic acid/pantothenic acid derivatives coupled to BODIPY 200 nM solutions were added and cells were incubated for 5 minutes at 37 °C. After 5 minutes, the compounds and DMSO solutions were removed and cells were washed with PBS. Then, 100 μL of TrypLE trypsin were added to each well and incubated for 5 minutes at 37 °C. After this time, 100 μL of DMEM media were added to the wells and samples were sorted through FACS biosort. The studies were completed in duplicated wells.

[3] = system: NZM9 (BRAF and NRAS wildtype) melanoma cells; assay: FACS uptake of BODIPY FL conjugates, 200 nM, 5 min (Example 2); format: cell-based, human
Experimental: as §1
NZM9 is an adherent cell line which was originally derived from a metastatic melanoma from a patient (from axillary lymph node, source: Cellosaurus database). These cancer cells are BRAF and NRAS wild type. NZM9 present a mutation on gene TP53, which is the most frequent in human cancers, on 179C/T. This gene encodes the synthesis of protein p53 which acts as a tumour suppressor. See Tran et al., 2021; Levine and Owen, 2009; Duffy and Crown, 2021.
For screening, NZM11, NZM40 and NZM9 cells were suspended at […] dispensed into 96 well plates and left to settle for 48 hours. Then, 10 μL of 10 mM stock solutions in DMSO for the conjugates were diluted with HBSS to afford 400 nM solution. Next, 400 nM compounds and DMSO solutions were diluted 1:1 with MEMα media to afford 200 nM solutions. After 48 hours the media was removed from the 96 well plates and 200 μL of 200 nM conjugates solutions dispensed to each well (in triplicate) and incubated for 5 minutes at 37 °C. After 5 minutes, the media was removed and cells washed with PBS. Then, 100 μL of TrypLE trypsin (ThermoFisher Scientific) were added to each well and incubated for 5 minutes at 37 °C after which, 100 μL of MEMα media were added and samples were sorted through FACS biosort. The FACS results output were represented as the mean of the fluorescence intensities (in arbitrary units) measured for cells sorted in every sample.

[4] = system: HEM (human epidermal melanocytes); assay: FACS uptake of BODIPY FL conjugates, 50 nM, 5 min (Example 1); format: cell-based; conditions: HEM / normal melanocytes
Experimental: FIG. 1. Conjugate compounds coupled to BODIPY FL were tested for uptake using 50 nM each conjugate and 5 minute incubation with HEM (human epidermal melanocytes) and melanoma cell line NZM11 (BRAF V600E mutant metastatic melanoma). Mean fluorescent intensities (MFI). For these tests, n=300-500, mean±SD. Results were from a single experiment done in triplicate. Cells were sorted by FACS.
Materials and methods: NZM11 is an adherent metastatic melanoma cell derived from a patient with a subcutaneous lesion on their mid back. This human metastatic melanoma is identified with code CBA-1398 from Cell bank Australia. […] Cells of NZM11 diluted in MEMα media and cells of HEMnDP (primary melanocyte cell line) diluted in media 254 were left to settle in 96-wells microplate for 48 hours. 10 μL of 10 mM stock solutions in DMSO from 138 and pantothenic acid/pantothenic acid derivatives coupled to BODIPY were diluted with HBSS to afford 100 nM solution. Then, 100 nM compounds and DMSO solutions were diluted 1:1 with MEMα media for NZM11 and media 254 for HEMnDP to afford 50 nM solutions. After the 48 hour settle time, media was removed from the cells and 200 μL of 50 nM media solutions were poured to each well and incubated for 5 minutes at 37 °C. […] The FACS results output represented the mean of the fluorescence intensities (in arbitrary units) measured for cells sorted in every sample

Row | SMILES | uptake (fluorescence intensities) [1] | uptake (fluorescent intensities) [2] | uptake (fluorescence intensities) [3] | uptake (fluorescence intensities) [4] | higher fluorescence intensities compared to enantiomer 126 [1] [fold] | higher fluorescence intensities compared to enantiomer 126 [3] [times]
1 | CC1=CC(C)=[N+]2C1=Cc1ccc(CCCn3cc(CCNC(=O)/C=C/NC(=O)[C@@H]4OC(C)(C)OCC4(C)C)nn3)n1[B-]2(F)F [Compound 125, (R,E)-N-((((3-[4,4-difluoro-5,7-dimethyl-4-bora-3a,4a-diaza-s-indacene-3-yl]propyl)-1H-1,2,3-triazol-4-yl)eth-ylamino)-3-oxoprop-1-enyl)-2,2,5,5-tetramethyl-1,3-dioxane-4-carboxamide] | selective uptake; also recorded: significant uptake | moderately higher fluorescent intensities | selective uptake; also recorded: significant uptake | – | – | –
2 | CC1=CC(C)=[N+]2C1=Cc1ccc(CCCn3cc(CCNC(=O)/C=C\NC(=O)[C@H]4OC(C)(C)OCC4(C)C)nn3)n1[B-]2(F)F [Compound 131, (Z)—N-((((3-[4,4-Difluoro-5,7-dimethyl-4-bora-3a,4a-diaza-s-indacene-3-yl]propyl)-1H-1,2,3-triazol-4-yl)ethylamino)-3-oxoprop-1-enyl)-2,2,5,5-tetramethyl-1,3-dioxane-4-carboxamide] | – | higher uptakes than their diol counterparts | – | significant uptake | – | –
3 | CC1=CC(C)=[N+]2C1=Cc1ccc(CCCn3cc(CCNC(=O)/C=C/NC(=O)[C@H](O)C(C)(C)CO)nn3)n1[B-]2(F)F [Compound 124] | highest intensities; also recorded: best targeting activity | – | highest intensities; also recorded: best targeting activity | no significant uptake | 15 | 7
